This is an account of results in PMC10025185, “A continuous in silico learning strategy to identify safety liabilities in compounds used in the leather and textile industry” (Archives of Toxicology, 2023).

Series [1] has as its system androgen and oestrogen receptors. The experiment in a line: ED assays of androgen and oestrogen receptors (overall experimental ED result). In kind it is cell-based. On the procedure:
The transcriptional activation of androgen receptor (AR) assays was carried out by adapting the OECD protocol 458 (OECD [2020]).
MDA-MB-453 cells (8000 cells/well) expressing an AR luciferase reporter were seeded into 384 white plates (Greiner 781098) in culture medium (DMEM (ATCC), 10% foetal bovine serum (Sigma Aldrich), 1% penicillin–streptomycin (Sigma-Aldrich), 75 µg/ml geneticin (Gibco) and incubated overnight at 37 °C 5% CO2 and 95% humidity. After this time, the cell culture medium was discarded and replaced by assay medium (DMEM (ATCC), 0.1% foetal bovine serum (Sigma-Aldrich), and 1% penicillin–streptomycin (Sigma Aldrich)).
For studying a putative agonist effect, compounds were added to the assay plate using an Echo 550 acoustic liquid handler and incubated overnight at 37 °C 5% CO2 and 95% humidity. For studying the putative antagonist effect, compounds were added using an Echo 550 acoustic liquid handler and incubated for 15 min at 37 °C 5% CO2 and 95% humidity. Then, 1 nM 5α-dihydrotestosterone (DHT) was added, and the cell plate was incubated overnight at 37 °C, 5% CO2, and 95% humidity. After compound incubation, the cell medium was removed, 5 µl of lysis buffer 1X (Promega) was added, and the cell plate was incubated with agitation 15 min at room temperature. A freeze–thaw cycle of 10 min at −80 °C and room temperature was performed. Then 25 µl of luciferase assay reagent (Promega) was added and luminescence was determined on an EnSpire plate reader (Perkin Elmer). Data was fitted to a four-parameter sigmoidal model with Prism 5.1 (Graphpad, Inc).
The transcriptional activation of oestrogen receptor (ER) assay was carried out by adapting the OECD protocol 455 (OECD [2021]) and the method of Li et al. ([2013]).
ER luciferase reporter T47D cells (5000 cells/well) were seeded into 384 white plates (Greiner 781098) in culture medium (RPMI 1640 (Thermo Fisher Scientific 52400), 10% foetal bovine serum (Sigma Aldrich F9665), 1% penicillin–streptomycin (Sigma-Aldrich P0781), 75 µg/ml Geneticin (Gibco 10131)) and incubated overnight at 37 °C and 5% CO2. The following day, the cell culture medium was discarded and replaced by assay medium (RPMI 1640 (Thermo Fisher Scientific 52,400), 0.1% foetal bovine serum (Sigma Aldrich F9665), and 1% penicillin–streptomycin (Sigma Aldrich P0781).
The assay was performed as stated before for the AR assay using 17β-estradiol as agonist instead of DHT.
ED was assessed by transactivation in vitro assays to identify agonists and antagonists of the androgen and oestrogen receptors.
Also, the experimental group analysed the endocrine-disrupting activity for the CMR compounds.

Series [2] deals with CHO-K1 (Chinese hamster ovary cells). In kind it is cell-based. As for the experimental part:
The in vitro micronucleus test is a genotoxicity test for the detection of micronuclei in the cytoplasm of interphase cells. Tests were conducted in the presence of the cytokinesis blocker cytochalasin B with three different treatment schedules: (i) short treatment for 6 h; (ii) short treatment for 6 h in the presence of an exogenous source of metabolic activation (cofactor supplemented S9 liver fraction); and (iii) extended treatment for 24 h.
CHO-K1 (Chinese hamster ovary cells, ATCC Item Number CCL-61) were cultured in DMEM F-12 containing 10% foetal bovine serum and 100 units/ml penicillin/100 μg/ml streptomycin (all from Sigma-Aldrich, St Louis, USA). Cells were seeded at 3000 cells/well in a collagen-coated 96-well plate in 100 μl. After 24 h, cells were incubated with CellTracker Orange CMTMR cellular dye solution (Invitrogen, Waltham, USA) for 1 h. Cells were then treated with compounds for 6 h, with or without S9 metabolic activation, or 24 h without S9 metabolic activation. […] After the 6-h compound treatment, cells were incubated with cytochalasin B (Alfa Aesar, Kandel, Germany) for 24 h. In case of 24-h treatment, cells were incubated with compounds in the presence of cytochalasin B and harvested after treatment. Benzo(a)pyrene, mitomycin C, and colchicine were used as positive controls for 6 h, with or without metabolic activation or 24 h treatments, respectively. […] After several washes with BupH-modified DPBS, cells were analysed in an Operetta High-Content Imaging System (PerkinElmer, Waltham, USA). […] Statistical significance was determined with the ANOVA test with significance level adjusted to p < 0.05.

Series [3] concerns zebrafish embryos. As to conditions: in vivo. On the procedure:
(§1) Zebrafish embryos obtained and maintained as described previously for toxicity determination were used to determine (I) terato-carcinogenesis assayed as previously informed (Selderslaghs et al. [2009], [2012]) with modifications. In brief, embryos were incubated for 0 hpf up to 120 hpf in the presence and absence of tested compounds. Each condition was assayed in triplicate with 12 embryos per condition per replicate. The appearance of selected characteristics and malformations with respect to normal development were quantified for the eyes, otoliths, heart, circulation, hatching, skeletal deformities, and body position. For each concentration tested, we assessed the mortality and the presence of malformations at 24, 48, 72, 96, and 120 hpf using a light microscope. When possible, the lethal effects (LC50) and terato-carcinogenic effects (EC50) were determined using the ToxRat software. Based on these values, a teratogenic index (TI) was calculated as LC50/EC50. Based on previous studies, we considered a compound to be a teratogen when TI > 2 at 120 hpf. When no TI could be calculated due to no malformations induction to a degree extensive enough to calculate the EC50 in the presence of high toxicity, the compound was considered a non-teratogen. (II) Neurotoxicity was assayed by evaluating the locomotor activity in embryos exposed to the tested compounds from 0 to 120 hpf using Zebrabox and Zebralab (ViewPoint). We tested three concentrations (24 embryos per concentration) below the NOEC to avoid readily toxic concentrations. After incubation with tested compounds for 120 hs in 96-well plates, the activity of larvae in response to transitions from dark to light was evaluated. The protocol involved an initial 10 min acclimation period inside the Zebrabox, followed by three cycles of light–dark of 10 min each. After the end of each cycle, the integrated activity of each embryo was registered. Statistical analysis was done using ANOVA, followed by the Tukey post hoc test. Differences were considered significant when p < 0.05. Dead embryos were not considered in the analysis. (III) The endocrine-disrupting effect in zebrafish embryos was assayed by real-time PCR as previously reported (Jarque et al. [2019]) with modifications. In brief, 0 hpf embryos (12 embryos per condition in triplicate) were incubated with selected compounds for up to 120 hpf. After incubation, treated (embryos incubated at the concentration right below the NOEC) and control embryos were collected in RNA later and kept at − 20°C until use. RNA was extracted from the samples using the RNeasy Mini Kit (QIAGEN) and was followed by cDNA synthesis using random primers and the AffinityScript Multi Temperature cDNA Synthesis Kit (Agilent Technologies). Finally, real-time PCR was performed for eight target genes to obtain data on the estrogenic (cytochrome P450 family 19 subfamily A member 1: cyp19a1b, and vitellogenin: vtg1), androgenic (cytochrome P450 family 2 subfamily W member 1: cyp2k22, and cytosolic sulphotransferase 3: sult2st3), and thyroid hormone (thyroid peroxidase: tpo, thyroid hormone receptor alpha: tra, transthyretin: ttr, and iodothyronine deiodinase 2: dio2) effect of the tested compounds. Significant changes in gene expression between controls and treated samples were considered as a potential endocrine-disrupting effect.

Series [4] relates to zebrafish embryos. As to conditions: in vivo.
Source text: In REACH, most of the mammalian tests for chemical safety assessment are related to reproductive toxicity (ECHA [2020]; Rovida and Hartung [2009]; Sellick [2011]) and consider complex molecular and cellular mechanisms determined in long-term experiments with very low throughput. To avoid the use of animals and to assay reproductive toxicity in a relevant 'non-animal' model adhering to the 3Rs rule, we used zebrafish embryos up to 120 hpf. Up to this developmental stage, the embryos are not considered animals according to European legislation (Sellick [2011]). When they reach the stage of independent feeding, zebrafish embryos become subject to regulations for animal experimentation. We performed a set of previously described experiments to cover a wide range of potential reprotoxic effects, including terato-carcinogenesis, developmental neurotoxicity, and endocrine disruption.
as §1, with “Technologies).” for “Technologies). Finally, real-time PCR was performed for eight target genes to obtain data on the estrogenic (cytochrome P450 family 19 subfamily A member 1: cyp19a1b, and vitellogenin: vtg1), androgenic (cytochrome P450 family 2 subfamily W member 1: cyp2k22, and cytosolic sulphotransferase 3: sult2st3), and thyroid hormone (thyroid peroxidase: tpo, thyroid hormone receptor alpha: tra, transthyretin: ttr, and iodothyronine deiodinase 2: dio2) effect of the tested compounds. Significant changes in gene expression between controls and treated samples were considered as a potential endocrine-disrupting effect.”
The source holds these as a separate data set.

A short description of series [5]: logKow as a measure of bioaccumulation, extracted from public databases. Particulars: yes/no by logKow, REACH cut off 4,5. In kind it is physicochemical.
On the set-up of series [6]: method as in earlier work. As to conditions: ref https://comptox.epa.gov/dashboard, https://echa.europa.eu/es/information-on-chemicals, cited from earlier work.
In series [7] the test system is Bhas 42 cell line. The experiment in a line: Bhas 42 cell transformation assay (carcinogenesis). In kind it is cell-based. On the procedure:
This assay was carried out by adapting the in vitro Bhas 42 cell transformation assay method described in the OECD Guidance Document No. 231 ([2017]) based on the work of Sasaki et al. ([2014]).
It consists of two assays with a different test compound addition schedule to identify compounds with initiating activity (tumour initiators) or promoting activity (tumour promoters). Previously, a cell growth assay for 7 days is performed to set the assay doses of the CTA and another cell growth assay is concurrently performed to the CTA to verify that the selected doses meet the acceptance criteria for the tests.
The carcinogenesis potential of the compound was assayed by means of measuring the frequency of transformed foci (morphologically altered cells that form discrete anchorage-independent colonies) in the Bhas 42 cell line, which can be extrapolated to an assessment of carcinogenic potential. In the transformation assay, the incubation of compounds with two different treatment schedules allowed to identify the initiating or promoting carcinogenic potential of the compounds.

Where two headings read alike, the source gives them in different places.

Consider `Cc1cc(N)ccc1N.O=S(=O)(O)O` [2,5-Diaminotoluene sulphate], for which the Experimental result in series [1] is “No”.

For `CC(Cl)C(=O)c1ccc(Cl)cc1` (centres unmarked) [2-Chloro-1-(4-chlorophenyl)propan-1-one], in series [2] (6 h with or without S9, 24 h without S9), the “Micronucleus assay (M)” value is recorded as “Negative”.

For `C=Cc1ccccn1` [2-Ethenylpyridine], the Experimental result in series [1] is reported as “Yes”.

Regarding `CC1=CC(=O)[C@@H](C(C)C)CC1` [(R)-6-(isopropyl)-3-methylcyclohex-2-en-1-one], the “Micronucleus assay (M)” value in series [2] is reported as “Negative”. In series [3], the “Reprotoxicity (R) Endocrine disruptor” value is given as “No” and the “reduction of embryo integrated activity” value is “up to 80%”. The “Reprotoxicity (R) Teratogen” value in series [4] is “No”.

As for `CC(C)[C@H]1CC[C@H](C)C[C@@H]1O` [Cyclohexanol, 5-methyl-2-(1-methylethyl)-, (1S,2R,5S)-], the Experimental result in series [1] was “No”.

Turning to `C=C(C)C(=O)O` [Methacrylic acid], the Bioaccumulation entry in series [5] was “No”. In addition, the “Bioaccumulation (logKow)” value in series [6] (experimental value) is recorded as 0.93.

For the molecule `COC(=O)C=Cc1ccccc1` [Methyl cinnamate], the Bioaccumulation entry in series [5] was “No”. Further, in series [6] (experimental value), the “Bioaccumulation (logKow)” value is reported as 2.62.

For the molecule `CCCCCC1C(=O)CCC1CC(=O)OC` (centres unmarked) [Methyl dihydrojasmonate], in series [1], the Experimental result is given as “Yes”.

`CCNC(N)=O` [N-Ethylurea]: the Bioaccumulation result in series [5] is given as “No”. The “Bioaccumulation (logKow)” value in series [6] (experimental value) is given as -0.74.

With `C=CC(=O)NC(C)C` [N-Isopropylacrylamide], the Bioaccumulation entry in series [5] is on record as “No”. Besides, the “Bioaccumulation (logKow)” value in series [6] (predicted value) is on record as 0.41.

As to `O=[N+]([O-])c1ccccc1` [Nitrobenzene], the Bioaccumulation entry in series [5] is “No”. Moreover, in series [6] (experimental value), the “Bioaccumulation (logKow)” value is recorded as 1.85.

On to `c1ccc2c(c1)ccc1ccccc12` [Phenanthrene], for which the Experimental result in series [1] is given as “Yes”.

Take `O=[PH](O)O` [Phosphonic acid]: in series [7], the “Carcinogen (C)” value was “No”. In addition, the Experimental result in series [1] is “No”.

As to `C#CCBr` [Propargyl bromide], in series [1] (endocrine disruptor yes/no), the Experimental result is given as “Yes”.
